Laboratory results: article PMC6940900, “Antiviral Activity of Benzoic Acid Derivative NC-5 Against Influenza A Virus and Its Neuraminidase Inhibition” (International Journal of Molecular Sciences, 2019)
pIC50: −log10 of the molar value.

Experiments:
[1] = molecular target: NA of A/Anhui/1/2013 (H7N9) (Influenza A virus (A/Anhui/1-BALF_RG1/2013(H7N9)), UniProt A0A024E3Q2); format: cell-based
[2] = molecular target: NA of A/Vietnam/1203/2004 (H5N1) (Influenza A virus (A/Viet Nam/1203/2004(H5N1)), UniProt Q6DPL2); experiment: cell-based

O=C(O)c1ccc(N2C(=O)CCC2(CO)CO)c(Nc2nnc(C3CCCCC3)[nH]2)c1 [compound 5]
pIC50 [1]: < 3.32 | pIC50 [2]: < 3.32
